Test results: publication PMC10144514, “Imageological/Structural Study regarding the Improved Pharmacokinetics by ^68Ga-Labeled PEGylated PSMA Multimer in Prostate Cancer” (Pharmaceuticals, 2023)
Values belong to the compound of their own block, whether it stands above or below them.

Experiments:
[1] = tested on: PC-3 PIP cells; experiment: Cellular uptake and 2-PMPA blocking in PC-3 PIP cells; format: cell-based
Procedure: Cellular experiments in this study were performed in the PC-3 PIP cell line. PC-3 PIP, a PCa cell line with stably high-expressed PSMA [28], was a gift from Professor Chen from the National University of Singapore. Cells were cultured in ATCC 1640 medium with 10% of FBS, L-glutamine, and antibiotic (37 °C, 5% CO2).
PC-3 PIP cells were cultured in ATCC 1640 medium containing 10% FBS. When cultured to 70–80% confluency, cells were collected and seeded in a 24-well plate. After culturing overnight (37 °C, 5% CO2), the culture medium was replaced by serum-free ATCC 1640 medium (serum-starved cell culture) for 0.5 h. Then nuclide-labeled compounds were added into wells (50 µL, 1 μCi/well) with gentle shakes to ensure they were well distributed. After incubating for 30 min/60 min/120 min, cells at each time point were digested by NaOH and measured by the γ-counter to calculate the uptake rate (n ≥ 3). Cells were co-incubated with glycine (pH = 2.8) for 1 min, and then the procedure above was repeated after dissolving in 1 M NaOH (procedure for internalization). Cells were incubated with PSMA inhibitor (2-PMPA) for blocking assays for 15 min before adding the labeled ligands.

[2] = target: T1, PSMA (PC-3 PIP cells) (Homo sapiens, UniProt Q04609); experiment: Competitive binding IC50 against [^68Ga]Ga-PSMA-11 in PC-3 PIP cells; details: competition with [^68Ga]Ga-PSMA-11, 1 h
T1 construct: expressed in transfected cells; host or cells: PC-3 PIP cells (PC-3 stably expressing PSMA; gift from Professor Chen, National University of Singapore)
Procedure: PC-3 PIP cells were seeded in 96-well plates in triplicate and cultured to a density of 5* × 10^5 cells per well. [^68Ga]Ga-PSMA-11 was added into wells after serum-starved cell culture (1 μCi/well, ≈171 nmol/L), after which different PBS-diluted competitive ligands were added in wells and cultured for another hour. Then cells were washed with cold PBS twice removing the supernatant. Cells were collected and transferred to test tubes for counting by the γ-counter. IC50 values were analyzed and confirmed by nonlinear regression on GraphPad Prism Software.

[3] = In vitro stability of radiotracers in FBS (radiochemical purity by HPLC); format: in vitro ADME; details: incubated in FBS at 37 °C for 2 h
Procedure: (§1) All solvents and reagents were purchased from Sigma-Aldrich (Shanghai, China) and Shanghai yuanye Bio-Technology (Shanghai, China). DOTA-(1P-PEG4), DOTA-(2P-PEG0), DOTA(DOTA-(2P-PEG4), and (DOTA-(2P-PEG4)2 were synthesized by Bidepharm (Shanghai, China), and characterized by HPLC and mass spectrometry. Radio-HPLC analyses of the radiotracers were carried out using C18 column (5 µm, 4.6 × 250 mm, ZORBAX Eclipse Plus, Agilent, Milford, MA, USA), and analytical grade solvent by solvent A (0.1% trifluoroacetic acid (TFA) in water) and solvent B (0.1% TFA in acetonitrile). A ^68Ge/^68Ga generator was purchased from ITM Medical Isotopes (Munich, Germany). The γ count was measured by a CAPRAC-t γ counter containing a NaI crystal (CAPINTEC, Ramsey, NJ, USA). All in vitro experiments regarding PSMA and the determination of radiotracers’ stability were performed in triplicate to ensure reproducibility.
(§2) […] was eluted from a ^68Ge/^68Ga generator with 0.05M HCl (≈200 MBq/mL). […]
(§3) A total of four kinds of PSMA-related ligands were designed and synthesized. The radiochemical purity of these four ^68Ga/^177Lu-labeled compounds was detected by HPLC (Figure 1) and thin-layer chromatography (Figure S5). […]

[4] = tested on: PC-3 PIP tumor; experiment: Micro animal PET/CT and SPECT/CT imaging of PC-3 PIP tumor-bearing mice; format: in vivo
Procedure: PC-3 PIP cells at the logarithmic phase were collected after trypsinization and re-suspended to 5 × 10^7/mL with serum-free medium after removing the supernatant. Mice (6 weeks) were subcutaneously injected with 200 μL of cell suspension, and utilized for small animal PET/CT imaging, SPECT/CT imaging, and biodistribution analysis when tumor volume was ≧100 mm^3. All animal experiments were conducted with the approval of The Southwest Medical University Animal Ethics Committee. Tumor-bearing mice (n = 3) were intravenously injected with 0.1 mL (80μCi) of freshly prepared ^68Ga/^177Lu-labeled PSMA ligands. PET/CT imaging was performed at 0.5/1/2/5 h after injection, and SPECT/CT imaging was performed at 6/24/48 h after injection. The acquired PET/CT and SPECT/CT data were re-constructed by OSEM (ordered subsets expectation maximization).

[5] = tested on: PC-3 PIP tumor; experiment: Biodistribution in PC-3 PIP tumor-bearing mice; format: in vivo; details: 2 h p.i.
Procedure: PC-3 PIP cells at the logarithmic phase were collected after trypsinization and re-suspended to 5 × 10^7/mL with serum-free medium after removing the supernatant. Mice (6 weeks) were subcutaneously injected with 200 μL of cell suspension, and utilized for small animal PET/CT imaging, SPECT/CT imaging, and biodistribution analysis when tumor volume was ≧100 mm^3. All animal experiments were conducted with the approval of The Southwest Medical University Animal Ethics Committee.
PC-3 PIP tumor-bearing mice (n > 3) were divided into four groups and respectively injected with 0.1 mL (70μCi) of [^68Ga]Ga-DOTA-(1P-PEG4), [^68Ga]Ga-DOTA-(2P-PEG0), [^68Ga]Ga-DOTA-(2P-PEG4), and [^68Ga]Ga-DOTA-(2P-PEG4)2 through the caudal vein. Mice were executed at 30 min/60 min/120 min after injection. Heart, blood, lung, liver, stomach, spleen, kidney, muscle, intestine, bone, salivary gland, and tumor were collected and detected by the γ-counter. The fitted curve was calculated on the basis of standard diluted samples of the initial dosage, and then the percentage of injected dose per gram of tissue (ID%/g) was calculated.

[6] = target: T2, human albumin (Homo sapiens, UniProt P02768); experiment: In vitro determination of albumin binding (ultrafiltration); format: in vitro ADME; details: human serum albumin 20 mg/mL, 37 °C, ^68Ga-labeled
T2 construct: purchased Sigma-Aldrich (Shanghai, China) or Shanghai yuanye Bio-Technology (general reagents statement; not tied to albumin)
Procedure: The albumin-binding rate of each ligand was measured by the γ-counter. ^68Ga-labeled PSMA ligand (≈50 μCi) was added into the human albumin solution (20 mg/mL). The mixture was incubated in a water bath (37 °C) for 30 min and 120 min, followed by ultrafiltration centrifugation for 5 min (10 kD, 10,000 rpm). The compound activities of the uncombined albumin or those retained on the filter membrane were measured by the γ counter, according to which the percentage of serum albumin binding activity (retained on the filter membrane) to total activity was calculated.
The calculation was based on the following equation: (counting of albumin retained on membrane − background counting)/(counting of albumin retained on membrane + counting of filtered liquid − 2* background counting) × 100%, and the average of three sets of data was taken as the final result.

[7] = Lipophilicity determination (n-octanol/PBS partition); format: physicochemical; details: ^68Ga-labeled ligand
Procedure: Nuclide-labeled ligand (20 μL, ≈50 μCi), PBS (480 μL), and saturated n-octanol (500 μL) were added in a 1 mL EP tube, followed by vortex. Then the mixture was centrifuged at a low temperature (−5 °C) for 10 min until the mixture was separated into the upper and the lower layers. Liquids in the two phases were transferred into EP tubes and measured by the γ-counter. The calculation of the LogP value was based on the following equation: LogP = Lg [(counting of the organic phase − background counting)/(counting of the aqueous phase − background counting)]

[8] = In vitro stability of radiotracers in PBS (radiochemical purity by HPLC); format: physicochemical; details: incubated in PBS at 37 °C for 2 h
Procedure: as §1, §2, §3

T2 sequence (P02768 25-609): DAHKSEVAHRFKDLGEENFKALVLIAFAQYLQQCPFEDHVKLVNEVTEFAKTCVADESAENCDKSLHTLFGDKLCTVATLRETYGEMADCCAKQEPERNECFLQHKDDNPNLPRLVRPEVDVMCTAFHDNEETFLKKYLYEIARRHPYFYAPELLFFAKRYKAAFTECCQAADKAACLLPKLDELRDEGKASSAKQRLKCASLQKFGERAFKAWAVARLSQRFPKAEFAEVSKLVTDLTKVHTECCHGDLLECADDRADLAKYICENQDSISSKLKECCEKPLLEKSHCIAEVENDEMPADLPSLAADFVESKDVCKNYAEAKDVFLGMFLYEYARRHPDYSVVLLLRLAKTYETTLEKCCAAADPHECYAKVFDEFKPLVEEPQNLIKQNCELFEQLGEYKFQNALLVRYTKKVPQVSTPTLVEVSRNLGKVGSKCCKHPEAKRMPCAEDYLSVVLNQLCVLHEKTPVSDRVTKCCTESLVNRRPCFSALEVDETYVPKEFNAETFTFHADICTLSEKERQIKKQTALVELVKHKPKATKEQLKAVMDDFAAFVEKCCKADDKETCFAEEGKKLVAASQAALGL
T1 sequence (Q04609 whole entry): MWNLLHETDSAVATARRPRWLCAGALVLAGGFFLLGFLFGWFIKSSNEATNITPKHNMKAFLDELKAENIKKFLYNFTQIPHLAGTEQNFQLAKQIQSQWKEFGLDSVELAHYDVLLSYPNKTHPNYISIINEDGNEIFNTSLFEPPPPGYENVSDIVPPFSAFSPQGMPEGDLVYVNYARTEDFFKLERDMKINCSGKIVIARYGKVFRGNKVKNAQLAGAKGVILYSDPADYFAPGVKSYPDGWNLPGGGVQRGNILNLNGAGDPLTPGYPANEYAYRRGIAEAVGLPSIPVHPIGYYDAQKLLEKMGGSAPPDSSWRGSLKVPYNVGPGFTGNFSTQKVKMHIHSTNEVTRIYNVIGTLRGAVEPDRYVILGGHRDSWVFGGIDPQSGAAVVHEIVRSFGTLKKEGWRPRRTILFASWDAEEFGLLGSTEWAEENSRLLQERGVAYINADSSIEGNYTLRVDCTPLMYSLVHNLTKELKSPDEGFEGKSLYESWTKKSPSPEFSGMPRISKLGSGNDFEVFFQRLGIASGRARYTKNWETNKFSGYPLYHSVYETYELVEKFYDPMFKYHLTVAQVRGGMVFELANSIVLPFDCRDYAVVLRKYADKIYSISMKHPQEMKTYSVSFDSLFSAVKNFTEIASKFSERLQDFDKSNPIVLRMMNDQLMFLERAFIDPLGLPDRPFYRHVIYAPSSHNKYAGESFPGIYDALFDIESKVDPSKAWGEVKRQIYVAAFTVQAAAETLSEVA

SMILES: O=C(O)CC[C@H](NC(=O)N[C@@H](CCCCNC(=O)[C@@H](CCC(=O)NCCCC[C@@H](NC(=O)N[C@H](CCC(=O)O)C(=O)O)C(=O)O)NC(=O)CN1CCN(CC(=O)O)CCN(CC(=O)O)CCN(CC(=O)O)CC1)C(=O)O)C(=O)O [[^68Ga]Ga-DOTA-(2P-PEG0), metal not drawn]
uptake rate after co-incubation with PSMA inhibitor 2-PMPA ([1]; PC-3 PIP cells blocked by 2-PMPA, uptake at one hour (Figure 3C)): 1.00 ± 0.16%
2 h cellular uptake rate ([1]; PC-3 PIP cells, 2 h, ^68Ga-labeled): 8.39 ± 3.65%
IC50 [2]: 455 nM
radiochemical purity (FBS) at 2 h [3]: 95.21%
tumor uptake on PET/CT imaging ([4]; ^68Ga-labeled, PET/CT at 0.5/1/2/5 h after injection): began to decline at 2 h after injection
2 h blood uptake value [5]: 2.78 ± 1.80 ID%/g
albumin-binding rate (0.5 h) ([6]; 0.5 h): 54.84%
albumin-binding rate (2 h) ([6]; 2 h): 54.29%
logP [7]: -2.84
radiochemical purity (PBS) at 2 h [8]: 95.78%

kidney uptake on SPECT/CT imaging at 6 h ([4]; ^177Lu-labeled, SPECT/CT, 6 h after injection): detectable kidney uptake at 6 h
SMILES: O=C(O)CC[C@H](NC(=O)N[C@@H](CCCCNC(=O)[C@H](Cc1ccc2ccccc2c1)NC(=O)[C@H]1CC[C@H](CNC(=O)CN2CCN(CC(=O)O)CCN(CC(=O)O)CCN(CC(=O)O)CC2)CC1)C(=O)O)C(=O)O [[^177Lu]Lu-PSMA-617, metal not drawn, reference compound]
